Earlier results on 2 molecules are cited in patent US12414956B2, “Method for smoking cessation” (CALISTA CAPITAL, LLC, priority 2017, dated 2025).

One may read the AUC as the area under the concentration-time curve, a measure of exposure. The term Cmax denotes the maximum level reached in the sampled fluid or tissue.

Read-outs that look alike come from different tables or passages of the source.

The conditions of data set [1]: after six months, clinical trials.
The conditions of data set [2]: mean, capsules, adult subjects, plasma.

Turning to `c1cnc2cc3c(cc2n1)[C@@H]1CNC[C@H]3C1` [CHANTIX, varenicline], in data set [1], the success rate is recorded as 14%.
Regarding `C=CC1=C(C(=O)O)N2C(=O)[C@@H](NC(=O)/C(=N\O)c3csc(N)n3)[C@H]2SC1` [Cefdinir, cefdinir], in data set [2] (single 300 mg oral dose), the AUC is 7050 ng·h/mL, the Cmax is 1600 ng/mL and the tmax is 2.9 h. In data set [2] (single 600 mg oral dose), the AUC was 11100 ng·h/mL, the Cmax was 2870 ng/mL and the tmax was 3.0 h.
